Legend:
Type in all cases: biochemical
aminopeptidase-A = aminopeptidase-A (Rattus norvegicus, UniProt P50123); test: Effect of APA inhibitor on ANG-I conversion by isolated rat glomeruli; conditions: 100 μM amastatin, 1 μM ANG-I
ANG-II type 1-receptor = test: Effect of losartan pre-incubation on ANG-II detection in isolated rat glomeruli; conditions: pre-incubation with 10 μM losartan, 1 μM ANG-I; data not shown
neprilysin = target: T1, neprilysin (Rattus norvegicus, UniProt P07861); test: Effect of NEP inhibitor on ANG-I conversion by isolated rat glomeruli; conditions: 10 μM thiorphan, 1 μM ANG-I, 15-90 minutes; p < 0.05 vs. untreated; n=7
T1 sequence (P07861 1-750): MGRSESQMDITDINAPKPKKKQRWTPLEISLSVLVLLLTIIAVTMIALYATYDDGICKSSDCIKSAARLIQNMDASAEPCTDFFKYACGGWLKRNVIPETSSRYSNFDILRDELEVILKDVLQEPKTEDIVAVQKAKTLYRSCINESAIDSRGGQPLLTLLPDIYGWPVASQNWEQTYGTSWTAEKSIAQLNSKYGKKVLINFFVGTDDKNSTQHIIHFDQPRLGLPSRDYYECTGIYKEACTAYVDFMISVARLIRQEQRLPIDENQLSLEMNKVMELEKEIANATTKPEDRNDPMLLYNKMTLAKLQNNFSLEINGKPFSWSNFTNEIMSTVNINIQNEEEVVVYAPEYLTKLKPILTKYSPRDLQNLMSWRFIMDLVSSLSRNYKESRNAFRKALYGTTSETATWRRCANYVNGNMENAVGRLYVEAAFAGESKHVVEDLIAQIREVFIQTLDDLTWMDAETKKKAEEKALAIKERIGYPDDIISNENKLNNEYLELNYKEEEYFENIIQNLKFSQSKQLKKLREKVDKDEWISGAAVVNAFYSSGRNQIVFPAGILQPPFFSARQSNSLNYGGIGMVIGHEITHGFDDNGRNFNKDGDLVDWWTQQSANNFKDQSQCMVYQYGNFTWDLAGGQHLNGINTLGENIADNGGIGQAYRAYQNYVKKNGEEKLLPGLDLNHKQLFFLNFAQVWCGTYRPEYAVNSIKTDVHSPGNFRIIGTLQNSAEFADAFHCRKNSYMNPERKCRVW

Chain of aminopeptidase-A (P50123 whole entry): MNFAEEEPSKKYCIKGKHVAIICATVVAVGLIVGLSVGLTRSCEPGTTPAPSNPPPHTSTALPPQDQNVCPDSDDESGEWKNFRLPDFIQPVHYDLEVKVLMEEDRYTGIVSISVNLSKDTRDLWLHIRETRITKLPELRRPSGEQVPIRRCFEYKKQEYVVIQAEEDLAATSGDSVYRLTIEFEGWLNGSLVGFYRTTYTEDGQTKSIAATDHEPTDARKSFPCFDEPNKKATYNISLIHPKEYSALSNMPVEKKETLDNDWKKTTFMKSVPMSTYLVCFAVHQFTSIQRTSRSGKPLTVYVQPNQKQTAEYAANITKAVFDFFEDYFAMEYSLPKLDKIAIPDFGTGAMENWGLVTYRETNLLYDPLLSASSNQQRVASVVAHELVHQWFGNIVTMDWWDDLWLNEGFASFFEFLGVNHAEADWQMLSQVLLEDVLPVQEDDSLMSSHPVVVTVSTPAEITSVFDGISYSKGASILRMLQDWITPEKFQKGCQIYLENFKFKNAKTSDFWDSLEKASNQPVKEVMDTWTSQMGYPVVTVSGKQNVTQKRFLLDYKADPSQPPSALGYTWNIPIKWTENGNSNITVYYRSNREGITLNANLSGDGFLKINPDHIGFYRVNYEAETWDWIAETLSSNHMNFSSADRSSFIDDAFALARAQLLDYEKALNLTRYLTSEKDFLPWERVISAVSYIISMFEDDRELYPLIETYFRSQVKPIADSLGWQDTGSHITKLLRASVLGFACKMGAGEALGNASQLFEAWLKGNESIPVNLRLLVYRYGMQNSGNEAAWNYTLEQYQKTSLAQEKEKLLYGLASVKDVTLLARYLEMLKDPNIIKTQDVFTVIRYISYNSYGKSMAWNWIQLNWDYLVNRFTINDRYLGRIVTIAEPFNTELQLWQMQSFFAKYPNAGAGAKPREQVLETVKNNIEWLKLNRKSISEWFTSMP

In the case of CC(C)C[C@@H](N)[C@H](O)C(=O)N[C@H](C(=O)N[C@H](C(=O)N[C@@H](CC(=O)O)C(=O)O)C(C)C)C(C)C [amastatin], the “effect on disappearance of ANG-I (APA inhibition)” value (aminopeptidase-A; 15-90 minutes, p < 0.05 vs. untreated, n=7) is reported as “significantly reduced” and the “change in ANG-II, amastatin-treated” value (aminopeptidase-A; 60 minutes) is reported as “non-significant increase”.
For CCCCc1nc(Cl)c(CO)n1Cc1ccc(-c2ccccc2-c2nn[nH]n2)cc1 [losartan], the “effect on detection of ANG-II” value (ANG-II type 1-receptor) was “did not enhance the detection of ANG-II”.
With O=C(O)CNC(=O)C(CS)Cc1ccccc1 (stereo not shown) [thiorphan] the “effect on disappearance of ANG-I (NEP inhibition)” value (neprilysin) was “significantly reduced”.

Source: PMC2706530 (Hypertension, 2009)
